{"source": "patent US20230303540A1", "about": "(Merck Sharp & Dohme LLC, priority 2020, published 2023)"}
{"target": "GST-tagged truncated human mutant G2019S LRRK2 (Homo sapiens, UniProt Q5S007, G2019S)", "experiment": "LRRK2 G2019S Km ATP LanthaScreen assay", "format": "biochemical", "conditions": "134 μM ATP (Km ATP), LRRKtide substrate, mean IC50 values; read-out: LRRK2 pIC50 (converted)", "procedure": "Unless otherwise noted, all reactions are magnetically stirred. Unless otherwise noted, when diethyl ether is used in the experiments described below, it is Fisher ACS certified material and is stabilized with BHT. Unless otherwise noted, “concentrated” and/or “solvent removed under reduced pressure” means evaporating the solvent from a solution or mixture using a rotary evaporator or vacuum pump. Unless otherwise noted, flash chromatography is carried out on a Teledyne Isco (Lincoln, NE), Analogix (Burlington, WI), or Biotage (Stockholm, SWE) automated chromatography system using a commercially available cartridge as the column. Columns may be purchased from Teledyne Isco, Analogix, Biotage, Varian (Palo Alto, CA), or Supelco (Bellefonte, PA) and are usually filled with silica gel as the stationary phase. Reverse phase prep-HPLC conditions, where used, can be found at the end of each experimental section. Aqueous solutions were concentrated on a Genevac (Ipswich, ENG) or by freeze-drying/lyophilization. Unless otherwise noted, all LRRK2 pIC50 data presented in tables refers to the LRRK2 G2019S Km ATP LanthaScreen™ assay (Life Technologies Corp., Carlsbad, CA) that is described in the Biological Assay section.\nThe IC50 values reported herein were measured as follows.\nBiological Assay: LRRK2 Km ATP LanthaScreen™ Assay\nThe LRRK2 kinase activity reported herein as IC50 values was determined with LanthaScreen™ technology from Life Technologies Corporation (Carlsbad, CA) using GST-tagged truncated human mutant G2019S LRRK2 in the presence of the fluorescein-labeled peptide substrate LRRKtide, also from Life Technologies. The data presented for the Km ATP LanthaScreen™ Assay represents mean IC50 values based on several test results and may have reasonable deviations depending on the specific conditions and reagents used. Assays were performed in the presence of 134 μM ATP (Km ATP). Upon completion, the assay was stopped and phosphorylated substrate detected with a terbium (Tb)-labeled anti-pERM antibody (cat. no. PV4898). The compound dose response was prepared by diluting a 10 mM stock of compound to a maximum concentration of 9.99 μM in 100% dimethylsulfoxide followed by custom fold serial dilution in dimethylsulfoxide nine times. Twenty nanoliters of each dilution was spotted via a Labcyte Echo onto a 384-well black-sided plate (Corning 3575) followed by 15 μl of a 1.25 nM enzyme solution in 1× assay buffer (50 mM Tris pH 8.5, 10 mM MgCl2, 0.01% Brij-35, 1 mM EGTA, 2 mM dithiothreitol, 0.05 mM sodium orthovanadate). Following a 15-minute incubation at room temperature, the kinase reaction was started with the addition of 5 μl of 400 nM fluorescein-labeled LRRKtide peptide substrate and 134 μM ATP solution in 1× assay buffer. The reaction was allowed to progress at ambient temperature for 90 minutes. The reaction was then stopped by the addition of 20 μl of TR-FRET Dilution Buffer (Life Technologies, Carlsbad, CA) containing 2 nM Tb-labeled anti-phospho LRRKtide antibody and 10 mM EDTA (Life Technologies, Carlsbad, CA). After an incubation of 1 hour at room temperature, the plate was read on an EnVision multimode plate reader (Perkin Elmer, Waltham, MA) with an excitation wavelength of 337 nm (Laser) and a reading emission at both 520 and 495 nm. Compound IC50s were interpolated from nonlinear regression best fits of the log of the final compound concentration, plotted as a function of the 520/495-nm emission ratio using Activity base. Abase uses a 4 parameter (4P) logistic fit based on the Levenberg-Marquardt algorithm.", "units": {"IC50": "nM"}}
{"smiles": "CN1CC2(C1)CN(c1cc3nc(Nc4cnn(C5(C)CC5)c4Cl)ncc3cc1Cl)C2", "note": "[Ex-4.37, 6-chloro-N-[5-chloro-1-(1-methylcyclopropyl)-1H-pyrazol-4-yl]-7-(6-methyl-2,6-diazaspiro[3.3.]heptan-2-yl)quinazolin-2-amine]", "IC50": 1.24}
{"smiles": "CC1(N2CCN(c3cc4nc(Nc5cnn(C6CC6(F)F)c5Cl)ncc4cc3Cl)CC2)COC1", "note": "(single isomer, unassigned) [Ex-4.61, 6-chloro-N-[5-chloro-1-(2,2-(R) or (S)difluorocyclopropyl)-1H-pyrazol-4-yl]-7-[4-(3-methyloxetan-3-yl)piperazin-1-yl]quinazolin-2-amine]", "IC50": 7.3}
{"smiles": "CC1(Cn2ncc(Nc3ncc4cc(Cl)c(N5CCN(C6(C)COC6)CC5)cc4n3)c2Cl)COC1", "note": "[Ex-4.52, 6-chloro-N-{5-chloro-1-[(3-methyloxetan-3-yl)methyl]-1H-pyrazol-4-yl}-7-[4-(3-methyloxetan-3-yl)piperazin-1-yl]quinazolin-2-amine]", "IC50": 1.89}
{"smiles": "Cc1cc(Nc2ncc3cc(Cl)c(N4CCN(C5(C)COCC5O)[C@@H](C)C4)cc3n2)n(C2CC2)n1", "note": "(single isomer, unassigned) [Ex-13.9, 4-((S or R) (3S,4S) or (3R,4R)-4-(6-chloro-2-((1-cyclopropyl-3-methyl-1H-pyrazol-5-yl)amino)quinazolin-7-yl)-2-methylpiperazin-1-yl)-4-methyltetrahydrofuran-3-ol]", "IC50": 97.5}
{"smiles": "CC1(N2CCN(c3cc4nc(Nc5cnn(C(F)F)c5)ncc4cc3Cl)CC2)COC1", "note": "[Ex-4.57, 6-chloro-N-[1-(difluoromethyl)-1H-pyrazol-4-yl]-7-[4-(3-methyloxetan-3-yl)piperazin-1-yl]quinazolin-2-amine]", "IC50": 4.13}
{"smiles": "CC(C)(O)Cn1ncc(Nc2ncc3cc(Cl)c(N4CCC(C)(O)CC4)cc3n2)c1Cl", "note": "[Ex-3.13, 1-(6-chloro-2-{[5-chloro-1-(2-hydroxy-2-methylpropyl)-1H-pyrazol-4-yl]amino}quinazolin-7-yl)-4-methylpiperidin-4-ol]", "IC50": 1.54}
{"smiles": "Cc1nsc(Nc2ncc3ccc(N4C(=O)C5CCC4C5)cc3n2)c1C", "note": "(centres unmarked) [Ex-8.15, 2-{2-[(3,4-dimethyl-1,2-thiazol-5-yl)amino]quinazolin-7-yl}-2-azabicyclo[2.2.1]heptan-3-one]", "IC50": 2.59}
{"smiles": "OC1CCN(c2cc3nc(Nc4cnn(C5CC5)c4Cl)ncc3cc2Cl)CC1", "note": "[Ex-3.8, 1-{6-chloro-2-[(5-chloro-1-cyclopropyl-1H-pyrazol-4-yl)amino]quinazolin-7-yl}piperidin-4-ol]", "IC50": 2.53}
{"smiles": "Clc1cc2cnc(Nc3cnn(C4CC4)c3Cl)nc2cc1N1CCC(N2CCCC2)CC1", "note": "[Ex-1.44, 6-chloro-N-(5-chloro-1-cyclopropyl-1H-pyrazol-4-yl)-7-[4-(pyrrolidin-1-yl)piperidin-1-yl]quinazolin-2-amine]", "IC50": 22.3}
{"smiles": "Cn1ncc(Nc2ncc3cc(Cl)c(N4CCN(C5(C)COCC5O)CC4)cc3n2)c1Cl", "note": "(single isomer, unassigned) [Ex-6.28, (3S,4S) or (3R,4R) 4-(4-{6-chloro-2-[(5-chloro-1-methyl-1H-pyrazol-4-yl)amino]quinazolin-7-yl}piperazin-1-yl)-4-methyloxolan-3-ol]", "IC50": 0.381}
{"smiles": "CC1(O)CCN(c2cc3nc(Nc4cnn(C56CC(C5)C6)c4)ncc3cc2Cl)CC1", "note": "[Ex-6.11, 1-(2-{[1-(bicyclo[1.1.1]pentan-1-yl)-1H-pyrazol-4-yl]amino}-6-chloroquinazolin-7-yl)-4-methylpiperidin-4-ol]", "IC50": 0.808}
{"smiles": "Cc1nn(C2CC3(C2)CN(C2COC2)C3)cc1Nc1ncc2ccc(N3C(=O)C4CCC3C4)cc2n1", "note": "(single isomer, unassigned) [Ex-8.5, (1R,4S) or (1S,4R)-2-(2-((3-methyl-1-(2-(oxetan-3-yl)-2-azaspiro[3.3]heptan-6-yl)-1H-pyrazol-4-yl)amino)quinazolin-7-yl)-2-azabicyclo[2.2.1]heptan-3-one]", "IC50": 0.625}
{"smiles": "CC1(N2CCN(c3cc4nc(Nc5cnn(C6CCC6)c5Cl)ncc4cc3Cl)CC2)COC1", "note": "[Ex-4.50, 6-chloro-N-(5-chloro-1-cyclobutyl-1H-pyrazol-4-yl)-7-[4-(3-methyloxetan-3-yl)piperazin-1-yl]quinazolin-2-amine]", "IC50": 4.61}
{"smiles": "OC1CN(C2CCN(c3cc4nc(Nc5cnn(CC(F)F)c5Cl)ncc4cc3Cl)CC2)C1", "note": "[Ex-1.22, 1-[1-(6-chloro-2-{[5-chloro-1-(2,2-difluoroethyl)-1H-pyrazol-4-yl]amino}quinazolin-7-yl)piperidin-4-yl]azetidin-3-ol]", "IC50": 6.94}
{"smiles": "FC12CC(n3ncc(Nc4ncc5cc(Cl)c(N6CCNCC6)cc5n4)c3Cl)(C1)C2", "note": "[Ex-6.55, 6-chloro-N-(5-chloro-1-(3-fluorobicyclo[1.1.1]pentan-1-yl)-1H-pyrazol-4-yl)-7-(piperazin-1-yl)quinazolin-2-amine]", "IC50": 2.11}
{"smiles": "CC1(N2CCN(c3cc4nc(Nc5cnn(CC6(C#N)CC6)c5)ncc4cc3Cl)CC2)COC1", "note": "[Ex-4.53, 1-{[4-({6-chloro-7-[4-(3-methyloxetan-3-yl)piperazin-1-yl]quinazolin-2-yl}amino)-1H-pyrazol-1-yl]methyl}cyclopropane-1-carbonitrile]", "IC50": 1.82}
{"smiles": "Cc1cc2cnc(Nc3cnn(C45CC(C4)C5)c3Cl)nc2cc1N1CC2(C1)CN(C1COCC1O)C2", "note": "(single isomer, unassigned) [Ex-5.16, (3R,4R) or (3S,4S) 4-(6-(2-((1-(bicyclo[1.1.1]pentan-1-yl)-5-chloro-1H-pyrazol-4-yl)amino)-6-methylquinazolin-7-yl)-2,6-diazaspiro[3.3]heptan-2-yl)tetrahydrofuran-3-ol]", "IC50": 20.9}
{"smiles": "Cc1c(Nc2ncc3cc(Cl)c(N4CCC(C)(O)CC4)cc3n2)cnn1C1CC1", "note": "[Ex-6.4, 1-{6-chloro-2-[(1-cyclopropyl-5-methyl-1H-pyrazol-4-yl)amino}quinazolin-7-yl}-4-methylpiperidin-4-ol]", "IC50": 1.92}
{"smiles": "C[C@H]1COC(=O)N1c1ccc2cnc(Nc3cn(C4CCCCC4)nc3Cl)nc2c1", "note": "[Ex-10.1, (S)-3-(2-((3-Chloro-1-cyclohexyl-1H-pyrazol-4-yl)amino)quinazolin-7-yl)-4-methyloxazolidin-2-one]", "IC50": 7.01}
{"smiles": "COCC12CC(n3cc(Nc4ncc5cc(Cl)c(N(C)C)cc5n4)cn3)(C1)C2", "note": "[Ex-3.18, 6-chloro-N-2-{1-[3-(methoxymethyl)bicyclo[1.1.1]pentan-1-yl]-1H-pyrazol-4-yl}-N-7-,N-7-dimethylquinazoline-2,7-diamine]", "IC50": 1.95}
{"smiles": "CC1(N2CCN(c3cc4nc(Nc5cnn(CC6CC6(F)F)c5)ncc4cc3Cl)CC2)COC1", "note": "(centres unmarked) [Ex-4.70, 6-chloro-N-{1-[(2,2-difluorocyclopropyl)methyl]-1H-pyrazol-4-yl}-7-[4-(3-methyloxetan-3-yl)piperazin-1-yl]quinazolin-2-amine]", "IC50": 4.93}
{"smiles": "Cc1c(Nc2ncc3cc(Cl)c(N4CCN(C5COCC5O)CC4)cc3n2)cnn1C1CC1(F)F", "note": "(single isomer, unassigned) [Ex-6.44, (3S,4S) or (3R,4R) 4-[4-(6-chloro-2-{[1-(2,2-(R) or (S)difluorocyclopropyl)-5-methyl-1H-pyrazol-4-yl]amino}quinazolin-7-yl)piperazin-1-yl]oxolan-3-ol]", "IC50": 6.89}
{"smiles": "CC1(N2CCN(c3cc4nc(Nc5cnn(C6(C)CC6)c5Cl)ncc4cc3Cl)CC2)CCOC1", "note": "(centres unmarked) [Ex-12.4]", "IC50": 3.04}
